Measured values from ChEMBL document CHEMBL3045273, “Synthesis, characterization, and pharmacological evaluation of 1-[2-(6-nitro-4-oxo-2-phenyl-4H-quinazolin-3-yl)-ethyl]-3-phenyl ureas” (2013).
In brackets after ≈: the same amount, converted by molar mass.

Legend:
[1] = system: Pseudomonas aeruginosa; assay: Antibacterial activity against Pseudomonas aeruginosa ATCC 27853 assessed as growth inhibition at 300 ug/ml after 24 hr by Kirby-Bauer disk diffusion method; type: functional; details: ATCC 27853, 24 h, read-out: DIZ
[2] = system: Pseudomonas aeruginosa; assay: Antibacterial activity against Pseudomonas aeruginosa ATCC 27853 assessed as initial concentration required for appearance of zone of inhibition after 24 hr; type: functional
[3] = system: Staphylococcus aureus; assay: Antibacterial activity against Staphylococcus aureus ATCC 25923 assessed as growth inhibition at 300 ug/ml after 24 hr by Kirby-Bauer disk diffusion method; type: functional; details: ATCC 25923, 24 h, read-out: DIZ
[4] = system: Candida albicans; assay: Antifungal activity against Candida albicans ATCC 66027 assessed as initial concentration required for appearance of zone of inhibition after 24 hr; type: functional
[5] = system: Bacillus subtilis; assay: Antibacterial activity against Bacillus subtilis ATCC 11774 assessed as growth inhibition at 100 ug/ml after 24 hr by Kirby-Bauer disk diffusion method; type: functional; details: ATCC 11774, 24 h, read-out: DIZ
[6] = system: Staphylococcus aureus; assay: Antibacterial activity against Staphylococcus aureus ATCC 25923 assessed as growth inhibition at 100 ug/ml after 24 hr by Kirby-Bauer disk diffusion method; type: functional; details: ATCC 25923, 24 h, read-out: DIZ
[7] = system: Candida albicans; assay: Antifungal activity against Candida albicans ATCC 66027 assessed as growth inhibition at 100 ug/ml after 24 hr by Kirby-Bauer disk diffusion method; type: functional; details: ATCC 66027, 24 h, read-out: DIZ
[8] = system: Pseudomonas aeruginosa; assay: Antibacterial activity against Pseudomonas aeruginosa ATCC 27853 assessed as growth inhibition at 100 ug/ml after 24 hr by Kirby-Bauer disk diffusion method; type: functional; details: ATCC 27853, 24 h, read-out: DIZ
[9] = system: Escherichia coli; assay: microbe, parasite or virus in culture; details: ATCC 25922, 24 h, read-out: DIZ
[10] = system: Pseudomonas aeruginosa; assay: Antibacterial activity against Pseudomonas aeruginosa ATCC 27853 assessed as growth inhibition after 24 hr by serial broth dilution method; type: functional; details: ATCC 27853, 24 h
[11] = system: Candida albicans; assay: Antifungal activity against Candida albicans ATCC 66027 assessed as growth inhibition at 300 ug/ml after 24 hr by Kirby-Bauer disk diffusion method; type: functional; details: ATCC 66027, 24 h, read-out: DIZ
[12] = system: Escherichia coli; assay: Antibacterial activity against Escherichia coli ATCC 25922 assessed as initial concentration required for appearance of zone of inhibition after 24 hr; type: functional
[13] = system: Staphylococcus aureus; assay: Antibacterial activity against Staphylococcus aureus ATCC 25923 assessed as growth inhibition after 24 hr by serial broth dilution method; type: functional; details: ATCC 25923, 24 h
[14] = system: Bacillus subtilis; assay: Antibacterial activity against Bacillus subtilis ATCC 11774 assessed as initial concentration required for appearance of zone of inhibition after 24 hr; type: functional
[15] = system: Bacillus subtilis; assay: Antibacterial activity against Bacillus subtilis ATCC 11774 assessed as growth inhibition at 300 ug/ml after 24 hr by Kirby-Bauer disk diffusion method; type: functional; details: ATCC 11774, 24 h, read-out: DIZ
[16] = system: Bacillus subtilis; assay: Antibacterial activity against Bacillus subtilis ATCC 11774 assessed as growth inhibition after 24 hr by serial broth dilution method; type: functional; details: ATCC 11774, 24 h
[17] = system: Escherichia coli; assay: microbe, parasite or virus in culture; details: ATCC 25922, 24 h, read-out: DIZ; remark: listed apart in the source
[18] = system: Staphylococcus aureus; assay: Antibacterial activity against Staphylococcus aureus ATCC 25923 assessed as initial concentration required for appearance of zone of inhibition after 24 hr; type: functional
[19] = system: Candida albicans; assay: Antifungal activity against Candida albicans ATCC 66027 assessed as growth inhibition after 24 hr by serial broth dilution method; type: functional; details: ATCC 66027, 24 h
[20] = system: Escherichia coli; assay: Antibacterial activity against Escherichia coli ATCC 25922 assessed as growth inhibition at 70 ug/ml after 24 hr by Kirby-Bauer disk diffusion method; type: functional; details: ATCC 25922, 24 h, read-out: DIZ
[21] = system: Escherichia coli; assay: Antibacterial activity against Escherichia coli ATCC 25922 assessed as growth inhibition after 24 hr by serial broth dilution method; type: functional; details: ATCC 25922, 24 h
[22] = system: Escherichia coli; assay: Antibacterial activity against Escherichia coli ATCC 25922 assessed as growth inhibition at 40 ug/ml after 24 hr by Kirby-Bauer disk diffusion method; type: functional; details: ATCC 25922, 24 h, read-out: DIZ

Row | Compound | zone of inhibition at 300 µg/mL [1] [mm] | Activity [2] [µg/mL] | zone of inhibition at 300 µg/mL [3] [mm] | Activity [4] [µg/mL] | zone of inhibition at 100 µg/mL [5] [mm] | zone of inhibition at 100 µg/mL [6] [mm] | zone of inhibition at 100 µg/mL [7] [mm] | zone of inhibition at 100 µg/mL [8] [mm] | zone of inhibition at 300 µg/mL [9] [mm] | MIC [10] [µg/mL] | zone of inhibition at 300 µg/mL [11] [mm] | Activity [12] [µg/mL] | MIC [13] [µg/mL] | Activity [14] [µg/mL] | zone of inhibition at 300 µg/mL [15] [mm] | MIC [16] [µg/mL] | zone of inhibition at 100 µg/mL [17] [mm] | Activity [18] [µg/mL] | MIC [19] [µg/mL] | MIC [21] [µg/mL] | further results
1 | O=C(NCCn1c(-c2ccccc2)nc2ccc([N+](=O)[O-])cc2c1=O)Nc1ccccc1Cl | 19 | 70 | 14 | 40 | 12 | 11 | 16 | 13 | 18 | 100 (≈ 216 µM) | 20 | 70 | 100 (≈ 216 µM) | 70 | 15 | 70 (≈ 151 µM) | 14 | 100 | 20 (≈ 43.1 µM) | 70 (≈ 151 µM) | zone of inhibition at 70 µg/mL [20]: 11 mm
2 | CSc1ccc(NC(=O)NCCn2c(-c3ccccc3)nc3ccc([N+](=O)[O-])cc3c2=O)cc1 | 19 | 70 | 12 | 20 | 12 | – | 15 | 12 | 18 | 70 (≈ 147 µM) | 20 | 40 | 200 (≈ 421 µM) | 70 | 16 | 70 (≈ 147 µM) | 14 | 200 | 20 (≈ 42.1 µM) | 40 (≈ 84.1 µM) | zone of inhibition at 40 µg/mL [22]: 11 mm
3 | Cc1ccccc1NC(=O)NCCn1c(-c2ccccc2)nc2ccc([N+](=O)[O-])cc2c1=O | 18 | 70 | 14 | 20 | 11 | 12 | 16 | 12 | 16 | 40 (≈ 90.2 µM) | 19 | 40 | 70 (≈ 158 µM) | 100 | 14 | 70 (≈ 158 µM) | 13 | 70 | 20 (≈ 45.1 µM) | 40 (≈ 90.2 µM) | zone of inhibition at 40 µg/mL [22]: 11 mm
4 | O=C(NCCn1c(-c2ccccc2)nc2ccc([N+](=O)[O-])cc2c1=O)Nc1ccc(C(F)(F)F)cc1 | 18 | 70 | 13 | 40 | 12 | 11 | 15 | 12 | 15 | 40 (≈ 80.4 µM) | 20 | 100 | 70 (≈ 141 µM) | 70 | 14 | 70 (≈ 141 µM) | 11 | 100 | 40 (≈ 80.4 µM) | 70 (≈ 141 µM) | –
5 | O=C(NCCn1c(-c2ccccc2)nc2ccc([N+](=O)[O-])cc2c1=O)Nc1ccc(Cl)cc1 | 16 | 100 | 12 | 40 | 12 | – | 15 | 11 | 14 | 40 (≈ 86.2 µM) | 21 | 70 | 200 (≈ 431 µM) | 70 | 16 | 70 (≈ 151 µM) | 12 | 200 | 40 (≈ 86.2 µM) | 40 (≈ 86.2 µM) | –
6 | O=C(NCCn1c(-c2ccccc2)nc2ccc([N+](=O)[O-])cc2c1=O)Nc1ccccc1 | 14 | 200 | 14 | 20 | 11 | – | 17 | – | 16 | 40 (≈ 93.1 µM) | 20 | 100 | 100 (≈ 233 µM) | 100 | 15 | 100 (≈ 233 µM) | 11 | 200 | 20 (≈ 46.6 µM) | 70 (≈ 163 µM) | –
7 | O=C(O)c1cn(C2CC2)c2cc(N3CCNCC3)c(F)cc2c1=O [CIPROFLOXACIN] | – | 10 | – | – | – | – | – | – | – | 10 (≈ 30.2 µM) | – | 20 | 5 (≈ 15.1 µM) | 5 | – | 5 (≈ 15.1 µM) | – | 10 | – | 15 (≈ 45.3 µM) | –
8 | O=C(NCCn1c(-c2ccccc2)nc2ccc([N+](=O)[O-])cc2c1=O)Nc1cc(C(F)(F)F)cc(C(F)(F)F)c1 | 19 | 40 | 12 | 20 | 14 | – | 17 | 14 | 14 | 40 (≈ 70.7 µM) | 24 | 100 | 200 (≈ 354 µM) | 70 | 19 | 40 (≈ 70.7 µM) | 11 | 200 | 20 (≈ 35.4 µM) | 100 (≈ 177 µM) | –
9 | Cc1ccc(NC(=O)NCCn2c(-c3ccccc3)nc3ccc([N+](=O)[O-])cc3c2=O)cc1 | 17 | 70 | 14 | 20 | 12 | 12 | 14 | 12 | 17 | 70 (≈ 158 µM) | 17 | 40 | 70 (≈ 158 µM) | 70 | 15 | 70 (≈ 158 µM) | 14 | 70 | 20 (≈ 45.1 µM) | 40 (≈ 90.2 µM) | zone of inhibition at 40 µg/mL [22]: 11 mm
10 | O=C(NCCn1c(-c2ccccc2)nc2ccc([N+](=O)[O-])cc2c1=O)Nc1cc(C(F)(F)F)ccc1Cl | 19 | 70 | 12 | 40 | 11 | – | 14 | 12 | 18 | 70 (≈ 132 µM) | 20 | 70 | 200 (≈ 376 µM) | 100 | 14 | 100 (≈ 188 µM) | 11 | 300 | 20 (≈ 37.6 µM) | 70 (≈ 132 µM) | –
11 | OC(Cn1cncn1)(Cn1cncn1)c1ccc(F)cc1F [FLUCONAZOLE] | – | – | – | 10 | – | – | – | – | – | – | – | – | – | – | – | – | – | – | 5 (≈ 16.3 µM) | – | –
12 | O=C(NCCn1c(-c2ccccc2)nc2ccc([N+](=O)[O-])cc2c1=O)NC1CCCCC1 | 17 | 70 | 12 | 20 | – | – | 13 | 12 | 18 | 70 (≈ 161 µM) | 21 | 70 | 200 (≈ 459 µM) | 200 | 13 | 100 (≈ 230 µM) | 13 | 200 | 20 (≈ 45.9 µM) | 70 (≈ 161 µM) | –
